Laboratory results from US20230026869A1, “CRYSTAL FORM OF NUCLEOPROTEIN INHIBITOR AND USE THEREOF” (CHIA TAI TIANQING PHARMACEUTICAL GROUP CO., LTD., priority 2019, published 2023).

Key:
[1] = Metabolic stability in liver microsomes of cynomolgus monkeys; assay type: in vitro ADME; settings: cynomolgus monkey
Protocol: (§1) Objective: The metabolic stability of the tested compound of formula (I) in liver microsomes of rats, beagle dogs and cynomolgus monkeys was determined. […]

[2] = Liver-to-blood ratio in Balb/c mice orally administered with the test compound; assay type: in vivo; settings: Balb/c female mice, oral administration, 3 mg/kg
Protocol: Experiment on the Liver-to-Blood Ratio in Balb/c Mice Orally Administered with the Test Compound The compound of formula (I) was mixed with an aqueous solution containing […] polyethylene glycol-15 hydroxystearate, and the mixture was vortexed and sonicated to prepare a 0.3 mg/mL clear solution for later use. Balb/c female mice aged 7 to 10 weeks were orally administered with the candidate compound solution at a dose of 3 mg/kg. Whole blood at a certain time point was collected and plasma was prepared. Liver tissues at the corresponding time point were collected to prepare a tissue homogenate. Drug concentration was analyzed by LC-MS/MS and pharmacokinetic parameters were calculated with Phoenix WinNonlin software.

[3] = Metabolic stability in liver microsomes of SD rats; assay type: in vitro ADME; settings: rat
Protocol: as §1

[4] = Pharmacokinetic study in Balb/c mice by oral administration and intravenous injection; assay type: in vivo; settings: mouse, Balb/c female mice, plasma
Protocol: Pharmacokinetic Study of the Test Compound in Balb/c Mice by Oral Administration and Intravenous Injection: The test compound was mixed with a solution containing dimethyl sulfoxide (101), polyethylene glycol 400 (600%) and water (300), and the mixture was vortexed and sonicated to prepare a 0.2 mg/mL clear solution, which was filtered through a millipore filter for later use. Balb/c female mice aged 7 to 10 weeks were intravenously injected with the candidate compound solution at a dose of 1 mg/kg. The test compound was mixed with an aqueous solution containing 10% polyoxyethylene stearate, and the mixture was vortexed and sonicated to prepare a 0.3 mg/mL clear solution for later use. Balb/c female mice aged 7 to 10 weeks were orally administered with the candidate compound solution at a dose of 3 mg/kg. Whole-blood was collected and plasma was prepared. Drug concentration was analyzed by LC-MS/MS and pharmacokinetic parameters were calculated with Phoenix WinNonlin software.

[5] = Experiment on cytotoxicity (CellTiter-Glo, 3 days); assay type: cell-based; settings: 3 days incubation, read-out: 50% cytotoxic concentration (CC50)
Protocol: • 1. The compound was diluted with DMSO (dimethyl sulfoxide) in a 3-fold gradient for 9 concentrations, and added into a 96-well plate in duplicate. The compound concentration was 200-fold of the final test concentration. • 2. The cells were rinsed with PBS (phosphate buffered saline) once, added with 0.25% trypsin and digested for about 2-5 min in a 37° C., 5% CO2 incubator. Then the digestion was terminated with a cell culture medium and the cells were dispersed into single cells by pipetting with a pipettor. • 3. The cell density was counted with a cell counter, and adjusted to the required density with the medium. • 4. The cells were added into a 96-well plate that had been added with the compound. The final concentration of DMSO in each well was 0.5%. Wells containing 0.5% DMSO were used as non-toxic negative controls, and wells containing the cell culture medium were used as 100% cytotoxicity controls. Then the cell plate was incubated in a 37° C., 5% CO2 cell incubator for 3 days. • 5. The chemiluminescence signal (RLU, relative chemiluminescence unit) of each well in the cell plate was detected with the cell viability detection kit CellTiter-Glo using the multi-functional microplate reader Envision, with instructions on the kit followed. • 6. The raw data (RLU) were substituted into the following formula to calculate the cell viability of each well (cell viability %): […]

Q: Which microsomal CLint at 1 μM ([1]; microsomes) does the source give for `CC1(NC(=O)C(=O)c2c(Cl)c(C(=O)Nc3cc(F)c(F)c(F)c3)c3n2CCC3)CCC(CC(=O)O)CC1` (stereo not drawn) [Compound of formula (I)] here?
A: < 9.6 µL/min/mg

Q: What about the CLint scaled at 1 μM ([1]; Cynomolgus monkeys liver microsomes) of the same molecule?
A: < 13 mL/min/kg

Q: And the half-life at 1 μM ([1]; Cynomolgus monkeys liver microsomes, 1 μM compound, 0.5 mg/mL)?
A: > 2.42 h

Q: And the AUC0-last ([2]; Liver)?
A: 86036 nmol·h/kg

Q: And the Kp ([2]; mouse, liver / plasma, read-out: AUC ratio (L/P) Liver/plasma exposure ratio)?
A: 24.7

Q: And the AUC(0-t) ([2]; mouse, Plasma)?
A: 3.48 µM·h

Q: And the microsomal CLint at 1 μM ([3]; SD, microsomes)?
A: < 9.6 µL/min/mg

Q: And the CLint scaled at 1 μM ([3]; SD rats liver microsomes)?
A: < 17.3 mL/min/kg

Q: And the half-life at 1 μM ([3]; SD rats liver microsomes, 1 μM compound, 0.5 mg/mL)?
A: > 2.42 h

Q: And the AUC ([4]; 3 mg/kg, PO 3 mpk, read-out: Area under the plasma concentration-time curve AUC)?
A: 2.27 µM·h

Q: And the Cmax ([4]; 3 mg/kg, PO 3 mpk, read-out: Peak concentration Cmax)?
A: 1480 nM

Q: What about the Tmax ([4]; 3 mg/kg, PO 3 mpk, read-out: Peak time Tmax) of the same molecule?
A: 0.5 h

Q: What about the bioavailability ([4]; 3 mg/kg, PO 3 mpk vs IV 1 mg/kg, read-out: Bioavailability (F %)) of the same molecule?
A: 51%

Q: What about the Vd ([4]; IV 1 mg/kg, read-out: Apparent volume of distribution (Vdss)) of the same molecule?
A: 3.1 L/kg

Q: And the AUC(0-t) ([4]; IV 1 mg/kg, read-out: Area under the plasma concentration-time curve AUC0-24 h)?
A: 1.49 µM·h

Q: And the clearance ([4]; IV 1 mg/kg, read-out: Clearance (CL))?
A: 20 mL/min/kg

Q: And the half-life ([4]; IV 1 mg/kg, read-out: Half-life T1/2 (converted))?
A: 1.95 h

Q: And the CC50 at 3 days [5]?
A: > 50 µM
